Measured values as given in patent US20230109839A1, “THERAPEUTIC AGENT FOR TAUOPATHIES” (SUMITOMO PHARMA CO., LTD., priority 2020, published 2023).

Biological target: T1, human Nav1.1 (Homo sapiens, UniProt P35498)
T1 construct: host or cells: HEK293
Test: Amplification of Nav1.1-derived voltage-gated sodium current (Nav1.1 current), automated patch clamp (Test 1)
Format: cell-based
Settings: HEK293 cell line stably expressing human Nav1.1
Method in brief: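 Compound-induced change in ramp-evoked sodium current peak and AUC was expressed as 100×post/pre ratio minus 100. Recordings used automated patch clamp in voltage-clamp mode on a stable human Nav1.1 HEK293 line, including only cells above 500 pA. Compounds were delivered in extracellular fluid containing 1% DMSO.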

[1] = Concentration for evaluation 1 μM
[2] = Concentration for evaluation 50 μM
[3] = Concentration for evaluation 10 μM
[4] = Concentration for evaluation 3 μM

Nav1.1 current amplification rate (%) [1]	Nav1.1 current amplification rate (%) [3]	SMILES	further results
232%	–	CC1CC=C(c2ccc(=O)n(CC(=O)Nc3ccc4cnnn4c3)n2)CC1 (centres unmarked) [Example 345]	–
96%	–	CC1CC=C(c2ccc(=O)n(CC(=O)Nc3ccc4nccn4n3)n2)CC1 (centres unmarked) [Example 346]	–
37%	–	Cc1nc2ccc(NC(=O)Cn3nc(C4=CCC(C)CC4)ccc3=O)cn2n1 (centres unmarked) [Example 347]	–
57%	–	CC1CC=C(c2ccc(=O)n(CC(=O)Nc3cnc4c(cnn4C)c3)n2)CC1 (centres unmarked) [Example 348]	–
101%	–	Cc1cc(NC(=O)Cn2nc(C3=CCC(C)CC3)ccc2=O)cn2ncnc12 (centres unmarked) [Example 349]	–
31%	–	CC1CC=C(c2ccc(=O)n(CC(=O)Nc3ccc4ncnn4n3)n2)CC1 (centres unmarked) [Example 350]	–
–	–	Cc1cc2ncnn2cc1NC(=O)Cn1nc(C2=CCC(C)CC2)ccc1=O (centres unmarked) [Example 351]	Nav1.1 current amplification rate (%) [2]: 98%
155%	–	Cc1cc(NC(=O)Cn2nc(C3=CCC(C)CC3)ccc2=O)cc2ncnn12 (centres unmarked) [Example 352]	–
–	–	Cc1c(NC(=O)Cn2nc(C3=CCC(C)CC3)ccc2=O)ccc2ncnn12 (centres unmarked) [Example 353]	Nav1.1 current amplification rate (%) [2]: 32%
123%	–	CC1CC=C(c2ccc(=O)n(CC(=O)Nc3ccc4nccnc4c3)n2)CC1 (centres unmarked) [Example 354]	–
130%	–	CC1CC=C(c2ccc(=O)n(CC(=O)Nc3ccc4ncncc4c3)n2)CC1 (centres unmarked) [Example 355]	–
378%	–	CC1CC=C(c2ccc(=O)n(CC(=O)Nc3ccc4cncnc4c3)n2)CC1 (centres unmarked) [Example 356]	–
–	–	CC1CC=C(c2ccc(=O)n(CC(=O)Nc3ccc4ncccc4c3)n2)CC1 (centres unmarked) [Example 357]	Nav1.1 current amplification rate (%) [2]: 43%
71%	–	CC1CC=C(c2ccc(=O)n(CC(=O)Nc3ccn4cnnc4c3)n2)CC1 (centres unmarked) [Example 358]	–
–	26%	CC1CC=C(c2ccc(=O)n(CC(=O)Nc3cc4nccn4cc3C#N)n2)CC1 (centres unmarked) [Example 359]	–
200%	–	CC1CC=C(c2ccc(=O)n(CC(=O)Nc3ccc(C#N)nc3)n2)CC1 (centres unmarked) [Example 360]	–
101%	–	Cc1nccn1-c1ccc(NC(=O)Cn2nc(C3=CCC(C)CC3)ccc2=O)cc1 (centres unmarked) [Example 361]	–
133%	–	CC1CC=C(c2ccc(=O)n(CC(=O)Nc3ccnc(C#N)c3)n2)CC1 (centres unmarked) [Example 362]	–
174%	–	CC1CC=C(c2ccc(=O)n(CC(=O)Nc3cccc(-n4ccnc4)c3)n2)CC1 (centres unmarked) [Example 363]	–
–	–	CC1CC=C(c2ccc(=O)n(CC(=O)Nc3cncc(CN(C)C)c3)n2)CC1 (centres unmarked) [Example 365]	Nav1.1 current amplification rate (%) [2]: 32%
–	–	COC1CN(Cc2cncc(NC(=O)Cn3nc(C4=CCC(C)CC4)ccc3=O)c2)C1 (centres unmarked) [Example 366]	Nav1.1 current amplification rate (%) [2]: 37%
38%	–	CC1CC=C(c2ccc(=O)n(CC(=O)Nc3cncc(C4=CCN(C)C4)c3)n2)CC1 (centres unmarked) [Example 367]	–
–	18%	CC1CC=C(c2ccc(=O)n(CC(=O)NC3CCN(c4ccccc4)CC3)n2)CC1 (centres unmarked) [Example 368]	–
–	–	CC1CC=C(c2ccc(=O)n(CC(=O)NC3CCN(c4ccccc4)C3)n2)CC1 (centres unmarked) [Example 369]	Nav1.1 current amplification rate (%) [2]: 10%

Nav1.1 current amplification rate (%) [1]	Nav1.1 current amplification rate (%) [3]	SMILES	further results
–	35%	CC1CC=C(c2ccc(=O)n(CC(=O)Nc3ccnc(CO)c3)n2)CC1 (centres unmarked) [Example 370]	–
–	–	CC1CC=C(c2ccc(=O)n(CC(=O)Nc3ccnc(C4=CCN(C)C4)c3)n2)CC1 (centres unmarked) [Example 371]	Nav1.1 current amplification rate (%) [2]: 64%
–	52%	CC1CC=C(c2ccc(=O)n(CC(=O)NC3CN(c4ccccc4)C3)n2)CC1 (centres unmarked) [Example 372]	–
–	35%	CC1CC=C(c2ccc(=O)n(CC(=O)Nc3ccnc(CN4CCOCC4)c3)n2)CC1 (centres unmarked) [Example 373]	–
–	18%	CC1CC=C(c2ccc(=O)n(CC(=O)Nc3ccc(C4=CCN(C)C4)nc3)n2)CC1 (centres unmarked) [Example 374]	–
–	173%	CC1CC=C(c2ccc(=O)n(CC(=O)Nc3ccc(-c4cnn(C)c4)nc3)n2)CC1 (centres unmarked) [Example 375]	–
–	44%	CC1CC=C(c2ccc(=O)n(CC(=O)Nc3ccc(CO)nc3)n2)CC1 (centres unmarked) [Example 376]	–
134%	–	CC1CC=C(c2ccc(=O)n(CC(=O)Nc3ccc(-n4ccnc4)nc3)n2)CC1 (centres unmarked) [Example 377]	–
37%	–	CC1CC=C(c2ccc(=O)n(CC(=O)Nc3cncc(-c4cnn(C)c4)c3)n2)CC1 (centres unmarked) [Example 378]	–
–	147%	CC1CC=C(c2ccc(=O)n(CC(=O)Nc3ccnc(-c4cnn(C)c4)c3)n2)CC1 (centres unmarked) [Example 379]	–
82%	–	Cc1ncc(-c2cncc(NC(=O)Cn3nc(C4=CCC(C)CC4)ccc3=O)c2)o1 (centres unmarked) [Example 380]	–
153%	–	CC1CC=C(c2ccc(=O)n(CC(=O)Nc3cncc(C4=CCOC4)c3)n2)CC1 (centres unmarked) [Example 381]	–
13%	–	CC1CC=C(c2ccc(=O)n(CC(=O)Nc3cncc(C4=COCCC4)c3)n2)CC1 (centres unmarked) [Example 382]	–
84%	–	CC1CC=C(c2ccc(=O)n(CC(=O)Nc3ccnc(N4CCOCC4)c3F)n2)CC1 (centres unmarked) [Example 383]	–
15%	–	CC1CC=C(c2ccc(=O)n(CC(=O)N3CCCN(c4cccnc4)CC3)n2)CC1 (centres unmarked) [Example 384]	–
–	–	CC1CC=C(c2ccc(=O)n(CC(=O)N3CC=C(c4ccccn4)C3)n2)CC1 (centres unmarked) [Example 385]	Nav1.1 current amplification rate (%) [2]: 42%
–	–	CC1CC=C(c2ccc(=O)n(CC(=O)N3CC=C(c4cccnc4)C3)n2)CC1 (centres unmarked) [Example 386]	Nav1.1 current amplification rate (%) [2]: 126%
19%	–	CC1CC=C(c2ccc(=O)n(CC(=O)N3CC=C(c4ccncc4)C3)n2)CC1 (centres unmarked) [Example 387]	–
–	37%	CC1CC=C(c2ccc(=O)n(CC(=O)N3CC=C(c4ccccc4)C3)n2)CC1 (centres unmarked) [Example 388]	–
–	53%	CC1CC=C(c2ccc(=O)n(CC(=O)N3CCC(Cc4ccccc4)C3)n2)CC1 (centres unmarked) [Example 389]	–
–	50%	CC1CC=C(c2ccc(=O)n(CC(=O)N3CCC(Oc4ccccc4)CC3)n2)CC1 (centres unmarked) [Example 390]	–
–	53%	CC1CC=C(c2ccc(=O)n(CC(=O)N3CCN(Cc4ccncc4)CC3)n2)CC1 (centres unmarked) [Example 392]	–
–	19%	CC1CC=C(c2ccc(=O)n(CC(=O)N3CCN(Cc4cccnc4)CC3)n2)CC1 (centres unmarked) [Example 393]	–
–	98%	CC1CC=C(c2ccc(=O)n(CC(=O)N3CCN(c4ccccn4)CC3)n2)CC1 (centres unmarked) [Example 394]	–

Nav1.1 current amplification rate (%) [1]	Nav1.1 current amplification rate (%) [3]	SMILES	further results
–	343%	CC1CC=C(c2ccc(=O)n(CC(=O)N3CCN(c4cccnc4)CC3)n2)CC1 (centres unmarked) [Example 395]	–
–	136%	Cc1ccc(N2CCN(C(=O)Cn3nc(C4=CCC(C)CC4)ccc3=O)CC2)cn1 (centres unmarked) [Example 396]	–
–	273%	CC1CC=C(c2ccc(=O)n(CC(=O)N3CC=C(c4cncc(F)c4)CC3)n2)CC1 (centres unmarked) [Example 397]	–
–	175%	CC1CC=C(c2ccc(=O)n(CC(=O)N3CC=C(c4cncnc4)CC3)n2)CC1 (centres unmarked) [Example 398]	–
–	102%	COc1cnc(C2=CCN(C(=O)Cn3nc(C4=CCC(C)CC4)ccc3=O)CC2)cn1 (centres unmarked) [Example 399]	–
–	238%	COc1ncc(C2=CCN(C(=O)Cn3nc(C4=CCC(C)CC4)ccc3=O)CC2)cn1 (centres unmarked) [Example 400]	–
–	286%	CC1CC=C(c2ccc(=O)n(CC(=O)N3CCN(c4cncc(C(F)(F)F)c4)CC3)n2)CC1 (centres unmarked) [Example 401]	–
–	323%	CC1CC=C(c2ccc(=O)n(CC(=O)N3CC=C(c4cccnc4)CC3)n2)CC1 (centres unmarked) [Example 402]	–
–	270%	COc1cncc(C2=CCN(C(=O)Cn3nc(C4=CCC(C)CC4)ccc3=O)CC2)c1 (centres unmarked) [Example 403]	–
–	42%	CC1CC=C(c2ccc(=O)n(CC(=O)N3CC=C(c4nccc5occc45)CC3)n2)CC1 (centres unmarked) [Example 404]	–
–	–	CC1CC=C(c2ccc(=O)n(CC(=O)N3CCN(c4cncc(OC(F)F)c4)CC3)n2)CC1 (centres unmarked) [Example 405]	Nav1.1 current amplification rate (%) [4]: 268%
–	–	Cc1nc(N2CCN(C(=O)Cn3nc(C4=CCC(C)CC4)ccc3=O)CC2)no1 (centres unmarked) [Example 406]	Nav1.1 current amplification rate (%) [2]: 68%
–	–	COc1ccc(N2CCN(C(=O)Cn3nc(C4=CCC(C)CC4)ccc3=O)CC2)cn1 (centres unmarked) [Example 407]	Nav1.1 current amplification rate (%) [4]: 113%
–	–	CC1CC=C(c2ccc(=O)n(CC(=O)N3CCN(C4CCCOC4)CC3)n2)CC1 (centres unmarked) [Example 408]	Nav1.1 current amplification rate (%) [2]: 80%
–	–	COc1ncc(N2CCN(C(=O)Cn3nc(C4=CCC(C)CC4)ccc3=O)CC2)cc1F (centres unmarked) [Example 409]	Nav1.1 current amplification rate (%) [4]: 244%
–	–	CC1CC=C(c2ccc(=O)n(CC(=O)N3CCN(C4CCOCC4)CC3)n2)CC1 (centres unmarked) [Example 411]	Nav1.1 current amplification rate (%) [2]: 18%
–	–	CC1CC=C(c2ccc(=O)n(CC(=O)N3CCN(c4ccn(C)n4)CC3)n2)CC1 (centres unmarked) [Example 412]	Nav1.1 current amplification rate (%) [2]: 36%
–	–	COc1cc(N2CCN(C(=O)Cn3nc(C4=CCC(C)CC4)ccc3=O)CC2)ccc1F (centres unmarked) [Example 413]	Nav1.1 current amplification rate (%) [4]: 27%
–	40%	CC1CC=C(c2ccc(=O)n(CC(=O)N3CCN(c4nccs4)CC3)n2)CC1 (centres unmarked) [Example 414]	–
–	93%	CC1CC=C(c2ccc(=O)n(CC(=O)N3CCN(c4cnn(C)c4)CC3)n2)CC1 (centres unmarked) [Example 415]	–
–	383%	CC1CC=C(c2ccc(=O)n(CC(=O)N3C[C@@H](C)N(c4cccnc4)[C@@H](C)C3)n2)CC1 (some centres unmarked) [Example 416]	–
–	–	COc1cnc(C)c(N2CCN(C(=O)Cn3nc(C4=CCC(C)CC4)ccc3=O)CC2)c1 (centres unmarked) [Example 418]	Nav1.1 current amplification rate (%) [4]: 105%
66%	–	CC1CC=C(c2ccc(=O)n(CC(=O)N3CC=C(c4ccncc4)CC3)n2)CC1 (centres unmarked) [Example 419]	–
